The assay deals with T1, human parathyroid cell Ca2+ receptor (hPCaR) (Homo sapiens, UniProt P41180).
T1 construct: expressed in transfected cells
T1 sequence (P41180 20-1078): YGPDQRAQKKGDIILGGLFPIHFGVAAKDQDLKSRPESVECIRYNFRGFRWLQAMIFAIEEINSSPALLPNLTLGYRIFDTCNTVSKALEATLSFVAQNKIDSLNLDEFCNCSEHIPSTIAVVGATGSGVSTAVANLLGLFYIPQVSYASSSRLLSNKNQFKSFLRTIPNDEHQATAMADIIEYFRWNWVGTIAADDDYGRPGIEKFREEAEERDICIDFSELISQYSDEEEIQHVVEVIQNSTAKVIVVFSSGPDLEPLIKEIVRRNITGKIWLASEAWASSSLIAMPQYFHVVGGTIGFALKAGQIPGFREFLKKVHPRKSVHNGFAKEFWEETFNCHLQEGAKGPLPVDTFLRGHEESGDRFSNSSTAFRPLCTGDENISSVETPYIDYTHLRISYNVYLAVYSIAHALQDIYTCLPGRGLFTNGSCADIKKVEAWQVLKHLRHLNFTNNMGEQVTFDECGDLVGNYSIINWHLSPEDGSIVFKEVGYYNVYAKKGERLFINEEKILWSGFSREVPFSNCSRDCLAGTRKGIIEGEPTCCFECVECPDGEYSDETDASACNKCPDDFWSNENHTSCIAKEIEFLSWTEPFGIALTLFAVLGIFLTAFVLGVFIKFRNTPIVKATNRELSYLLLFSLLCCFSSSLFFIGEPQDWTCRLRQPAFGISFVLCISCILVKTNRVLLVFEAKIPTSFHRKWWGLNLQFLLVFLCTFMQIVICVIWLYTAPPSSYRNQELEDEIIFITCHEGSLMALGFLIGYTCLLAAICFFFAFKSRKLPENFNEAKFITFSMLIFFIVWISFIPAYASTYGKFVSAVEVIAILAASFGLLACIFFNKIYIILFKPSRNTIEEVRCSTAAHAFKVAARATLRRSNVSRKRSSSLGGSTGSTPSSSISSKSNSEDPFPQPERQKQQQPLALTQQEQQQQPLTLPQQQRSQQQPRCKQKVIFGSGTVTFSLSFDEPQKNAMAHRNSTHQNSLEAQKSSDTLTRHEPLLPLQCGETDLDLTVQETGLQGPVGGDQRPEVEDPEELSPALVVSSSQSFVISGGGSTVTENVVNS
Kind of assay: [Ca2+]i measurement (fluo-3 fluorescence) in HEK 293 4.0-7 cells stably transfected with hPCaR. As to conditions: HEK 293 4.0-7 cells expressing hPCaR; fluo-3, excitation 485 nm / emission 530 nm. The format is cell-based. As to the method: The activities of the compounds of the present invention on calcium receptors were measured. In one embodiment, the measurement was performed in accordance with the method described in Example 4 of Nemeth et al., PCT/US95/13704 (International Publication No. WO96/12697) herein incorporated by reference.
A 4.0-kb NotI-HindIII fragment of the human parathyroid cell Ca^2+ receptor (hPCaR) cDNA was subcloned into the mammalian expression vector pCEP4 (Invitrogen) containing the hygromycin-resistant gene as a selectable marker. This plasmid was transfected into HEK 293 cells by calcium phosphate precipitation. Transfected cells were grown in Dulbecco's modified Eagle's medium containing 10% fetal bovine serum and hygromycin (200 μg/mL). Hygromycin-resistant colonies were subcloned and assayed for hPCaR mRNA by solution hybridization using a ^32P-labeled RNA probe complementary to the (4.0 kb) hPCaR sequence (Garrett, et al., J. Biol. Chem. 270, 12919–12925 (1995)). Clone 7 was used to assess the effects of compounds on [Ca^2+]i. This stably transfected cell line is termed HEK 293 4.0–7. For measurements of [Ca^2+]i, the cells were recovered from tissue culture flasks by brief treatment with 0.02% EDTA and then washed and resuspended in PCB containing 1 mM CaCl2 and 0.1% Bovine Serum Albumin (“BSA”). The cells were loaded with fluo-3 by incubation for 30 min at 37° C., with parathyroid cell buffer (126 mM NaCl, 4 mM KCl, 1 mM MgSO4, 0.7 mM K2HPO4/KH2PO4, 20 mM HEPES.NaOH (pH 7.45)) containing 0.5% BSA in 1 mM CaCl2 and 2 μM fluo-3 acetoxymethyl ester. The cells were subsequently washed, each test compound was added to the cells and the fluorescence was recorded by using excitation and emission wavelengths of 485 and 530 nm, respectively.

Structures are written as SMILES. A value given as a limit tells only on which side of the number the result lay.

This note sets out measurements from patent US7176322B2, “Calcium receptor modulating agents” (Amgen Inc., priority 2002, dated 2007).

For `CCn1c2ccccc2c2cc(CN[C@H](C)c3cccc4ccccc34)ccc21` [(R)-N-(1-(1-Naphthyl)ethyl)-N-(9-ethyl-3-carbazolylmethyl)amine], the EC50 (as a rule, the concentration giving half of the maximal effect) is not above 10 µM. Compound `CCn1c2ccccc2c2cc(CN[C@H](C)c3cccc(OC)c3)ccc21` [(R)-N-(1-(3-Methoxyphenyl)ethyl)-N-(9-ethyl-3-carbazolylmethyl)amine] had a concentration giving a half-maximal response (EC50) not above 10 µM. The value for `CCn1nc2ccc(CN[C@H](C)c3cccc4ccccc34)cc2n1` [Example 4, (R)-N-(1-(1-Naphthyl)ethyl)-N-(2′-ethyl-benzotriazol-5-ylmethyl)amine] was not above 10 µM; that for `CCn1nc2ccc(CN[C@H](C)c3cccc(OC)c3)cc2n1` [Example 5, (R)-N-(1-(3-Methoxyphenyl)ethyl)-N-(2′-ethyl-benzotriazol-5-ylmethyl)amine] was not above 10 µM. Consider `CCn1nc2ccc(CN[C@H](C)c3ccccc3)cc2n1` [Example 6, (R)-N-(1-(Phenyl)ethyl)-N-(2′-ethyl-benzotriazol-5-ylmethyl)amine], for which the EC50 was not above 10 µM. The value for `CCn1c2ccc(CN[C@H](C)c3cccc(OC)c3)cc2c2cc(OC)ccc21` [Example 8, (R)-N-(1-(3-Methoxyphenyl)ethyl)-N-(9-ethyl-6-methoxy-3-carbazolylmethyl)amine] was not above 10 µM; that for `CCn1c2c(c3cc(CN[C@H](C)c4ccccc4)ccc31)CCC2` [Example 10] was not above 10 µM. `C[C@@H](NCc1ccc2c(c1)ncn2C)c1cccc2ccccc12` [Example 11, (R)-N-(1-(1-Naphthyl)ethyl)-N-((1-methylbenzimidazol-5-yl)methyl)amine] returned an EC50 not above 10 µM. As for `C[C@@H](NCc1ccc2c(c1)ncn2C)c1ccccc1` [Example 12, (R)-N-(1-(Phenyl)ethyl)-N-((1-methylbenzimidazol-5-yl)methyl)amine], the 50% effective concentration (EC50) was not above 10 µM.

As for `CCn1c2c(c3cc(CN[C@H](C)c4ccccc4)ccc31)CN(C)CC2` [Example 13], the EC50 was not above 10 µM. In turn, `CCn1c2c(c3cc(CN[C@H](C)c4cccc(OC)c4)ccc31)CN(C)CC2` [Example 14] came in with an EC50 not above 10 µM. The value for `CCn1c2ccccc2c2cc(CN[C@H](C)c3ccccc3)ccc21` [Example 17, (R)-N-(1-(Phenyl)ethyl)-N-(9-ethyl-3-carbazolylmethyl)amine] was not above 10 µM. Consider `CCn1ccc2cc(CN[C@H](C)c3cccc4ccccc34)ccc21` [Example 18, (R)-N-(1-(1-Naphthyl)ethyl)-N-((1-ethylindole-5-yl)methyl)amine], for which the EC50 was not above 10 µM. In turn, `CCn1c2c(c3cc(CN[C@H](C)c4ccccc4)ccc31)COCC2` [Example 19] showed an EC50 not above 10 µM. `CCn1c2c(c3cc(CN[C@H](C)c4cccc(OC)c4)ccc31)COCC2` [Example 20] displayed an EC50 not above 10 µM.

On to `CCn1c2c(c3cc(CN[C@H](C)c4cccc5ccccc45)ccc31)COCC2` [Example 21], for which the EC50 was not above 10 µM. The same measure for `C[C@@H](NCc1ccc2c(c1)c1ccccc1n2CCCN(C)C)c1cccc2ccccc12` [Example 24]: not above 10 µM; for `C[C@@H](NCc1ccc2[nH]ccc2c1)c1cccc2ccccc12` [Example 25, (1R)-N-(1H-indol-5-ylmethyl)-1-(1-naphthalenyl)ethanamine]: not above 10 µM. Turning to `CCn1cc(-c2ccccc2)c2cc(CN[C@H](C)c3ccccc3)ccc21` [Example 28, (1R)-N-((1-ethyl-3-phenyl-1H-indol-5-yl)methyl)-1-phenylethanamine], the EC50 is not above 10 µM. In turn, `CCn1cc(-c2ccc(OC(F)(F)F)cc2)c2cc(CN[C@H](C)c3ccccc3)ccc21` [Example 29, (1R)-N-((1-ethyl-3-(4-((trifluoromethyl)oxy)phenyl)-1H-indol-5-yl)methyl)-1-phenylethanamine] registered an EC50 not above 10 µM.
